In the supplement of paper PMC10307832:

Columns and labels:
Assay in all cases: relative viability (nuclei count vs DMSO), 5 days (fraction); higher = more cells survive
BEN = tested on: BEN
Summary of the method: (§1)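 One day after seeding in 1536-well plates, lung cancer cell lines were dosed by pin tool. Dosing was either single-drug or a fixed anchor-drug dose plus five library-drug doses (not always all listed) in √10 steps. After 5 days, nuclei were stained in one fix-and-stain step and counted on 4× images, and relative viability is the nuclei count of treated wells over that of vehicle wells, given as the median of duplicate plates.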

EMC-BAC-2 = tested on: EMC-BAC-2
Summary of the method: as §1

H3255 = tested on: H3255
Summary of the method: as §1

HOP-62 = tested on: HOP-62
Summary of the method: as §1

LCLC-97TM1 = tested on: LCLC-97TM1
Summary of the method: as §1

LXF-289 = tested on: LXF-289
Summary of the method: as §1

NCI-H1563 = tested on: NCI-H1563
Summary of the method: as §1

NCI-H1650 = tested on: NCI-H1650
Summary of the method: as §1

NCI-H1915 = tested on: NCI-H1915
Summary of the method: as §1

NCI-H1993 = tested on: NCI-H1993
Summary of the method: as §1

NCI-H2009 = tested on: NCI-H2009
Summary of the method: as §1

NCI-H2023 = tested on: NCI-H2023
Summary of the method: as §1

NCI-H2085 = tested on: NCI-H2085
Summary of the method: as §1

NCI-H2126 = tested on: NCI-H2126
Summary of the method: as §1

NCI-H2347 = tested on: NCI-H2347
Summary of the method: as §1

NCI-H322M = tested on: NCI-H322M
Summary of the method: as §1

NCI-H358 = tested on: NCI-H358
Summary of the method: as §1

NCI-H647 = tested on: NCI-H647
Summary of the method: as §1

NCI-H661 = tested on: NCI-H661
Summary of the method: as §1

NCI-H727 = tested on: NCI-H727
Summary of the method: as §1

PC-14 = tested on: PC-14
Summary of the method: as §1

SK-LU-1 = tested on: SK-LU-1
Summary of the method: as §1

SW 1573 = tested on: SW 1573
Summary of the method: as §1

In the case of `C[C@@H]1CN(CC(=O)Nc2ccc3c(c2)Cc2cccc(-c4cc(=O)cc(N5CCOCC5)o4)c2S3)C[C@H](C)O1` + C[C@@H](Oc1cc(-c2cnn(C3CCNCC3)c2)cnc1N)c1c(Cl)ccc(F)c1Cl [Crizotinib] (partner 1 µM), the relative viability (BEN; first compound 0.04 µM) is reported as 0.812, the relative viability (BEN; first compound 0.1265 µM) is reported as 0.82 and the relative viability (BEN; first compound 0.4 µM) is reported as 0.964. For the same compound, the relative viability (BEN; first compound 4 µM) was 0.95, the relative viability (EMC-BAC-2; first compound 0.04 µM) was 0.57 and the relative viability (EMC-BAC-2; first compound 0.1265 µM) was 0.761. For the same compound, the relative viability (EMC-BAC-2; first compound 0.4 µM) was 0.75, the relative viability (EMC-BAC-2; first compound 4 µM) was 0.819 and the relative viability (H3255; first compound 0.04 µM) was 0.824. It also gave a relative viability (H3255; first compound 0.1265 µM) of 0.785, a relative viability (H3255; first compound 0.4 µM) of 0.814 and a relative viability (H3255; first compound 4 µM) of 0.719. The relative viability (HOP-62; first compound 0.04 µM) was 0.876, the relative viability (HOP-62; first compound 0.1265 µM) was 1 and the relative viability (HOP-62; first compound 0.4 µM) was 0.884. For the same compound, the relative viability (HOP-62; first compound 4 µM) was 0.941, the relative viability (LCLC-97TM1; first compound 0.1265 µM) was 0.396 and the relative viability (LCLC-97TM1; first compound 0.4 µM) was 0.287. It also gave a relative viability (LCLC-97TM1; first compound 4 µM) of 0.337, a relative viability (LXF-289; first compound 0.04 µM) of 0.777 and a relative viability (LXF-289; first compound 0.1265 µM) of 0.877. For the same compound, the relative viability (LXF-289; first compound 0.4 µM) was 0.814, the relative viability (LXF-289; first compound 4 µM) was 0.799 and the relative viability (NCI-H1563; first compound 0.04 µM) was 0.852. For the same compound, the relative viability (NCI-H1563; first compound 0.1265 µM) was 0.849, the relative viability (NCI-H1563; first compound 0.4 µM) was 0.688 and the relative viability (NCI-H1563; first compound 4 µM) was 0.747. For the same compound, the relative viability (NCI-H1650; first compound 0.04 µM) was 0.991, the relative viability (NCI-H1650; first compound 0.1265 µM) was 0.959 and the relative viability (NCI-H1650; first compound 0.4 µM) was 1.1. For the same compound, the relative viability (NCI-H1650; first compound 4 µM) was 0.55, the relative viability (NCI-H1915; first compound 0.04 µM) was 0.9 and the relative viability (NCI-H1915; first compound 0.1265 µM) was 0.886. For the same compound, the relative viability (NCI-H1915; first compound 0.4 µM) was 0.95, the relative viability (NCI-H1915; first compound 4 µM) was 0.853 and the relative viability (NCI-H1993; first compound 0.04 µM) was 0.876. The relative viability (NCI-H1993; first compound 0.1265 µM) was 0.846, the relative viability (NCI-H1993; first compound 0.4 µM) was 0.661 and the relative viability (NCI-H1993; first compound 4 µM) was 0.85. It also gave a relative viability (NCI-H2009; first compound 0.04 µM) of 1.05, a relative viability (NCI-H2009; first compound 0.1265 µM) of 1.03 and a relative viability (NCI-H2009; first compound 0.4 µM) of 1.09. The relative viability (NCI-H2009; first compound 4 µM) was 0.769, the relative viability (NCI-H2023; first compound 0.04 µM) was 0.655 and the relative viability (NCI-H2023; first compound 0.1265 µM) was 0.634. For the same compound, the relative viability (NCI-H2023; first compound 0.4 µM) was 0.664, the relative viability (NCI-H2023; first compound 4 µM) was 0.516 and the relative viability (NCI-H2085; first compound 0.04 µM) was 0.922. The relative viability (NCI-H2085; first compound 0.1265 µM) was 0.88, the relative viability (NCI-H2085; first compound 0.4 µM) was 0.773 and the relative viability (NCI-H2085; first compound 4 µM) was 0.665. For the same compound, the relative viability (NCI-H2126; first compound 0.04 µM) was 1.05, the relative viability (NCI-H2126; first compound 0.1265 µM) was 1.02 and the relative viability (NCI-H2126; first compound 0.4 µM) was 1.05. The relative viability (NCI-H2126; first compound 4 µM) was 1.02, the relative viability (NCI-H2347; first compound 0.04 µM) was 0.784 and the relative viability (NCI-H2347; first compound 0.1265 µM) was 0.754. The relative viability (NCI-H2347; first compound 0.4 µM) was 0.735, the relative viability (NCI-H2347; first compound 4 µM) was 0.578 and the relative viability (NCI-H322M; first compound 0.04 µM) was 0.599. It also gave a relative viability (NCI-H322M; first compound 0.1265 µM) of 0.863, a relative viability (NCI-H322M; first compound 0.4 µM) of 1.08 and a relative viability (NCI-H322M; first compound 4 µM) of 0.959. It also gave a relative viability (NCI-H358; first compound 0.04 µM) of 0.456, a relative viability (NCI-H358; first compound 0.1265 µM) of 0.465 and a relative viability (NCI-H358; first compound 0.4 µM) of 0.718. It also gave a relative viability (NCI-H358; first compound 4 µM) of 0.365, a relative viability (NCI-H647; first compound 0.04 µM) of 1.04 and a relative viability (NCI-H647; first compound 0.1265 µM) of 1.09. For the same compound, the relative viability (NCI-H647; first compound 0.4 µM) was 1.09, the relative viability (NCI-H647; first compound 4 µM) was 0.592 and the relative viability (NCI-H661; first compound 0.04 µM) was 1.07. It also gave a relative viability (NCI-H661; first compound 0.1265 µM) of 1.01, a relative viability (NCI-H661; first compound 0.4 µM) of 1.02 and a relative viability (NCI-H661; first compound 4 µM) of 0.885. For the same compound, the relative viability (NCI-H727; first compound 0.04 µM) was 0.891, the relative viability (NCI-H727; first compound 0.1265 µM) was 0.746 and the relative viability (NCI-H727; first compound 0.4 µM) was 0.927. It also gave a relative viability (NCI-H727; first compound 4 µM) of 0.624, a relative viability (PC-14; first compound 0.04 µM) of 0.976 and a relative viability (PC-14; first compound 0.1265 µM) of 0.982. The relative viability (PC-14; first compound 0.4 µM) was 0.859, the relative viability (PC-14; first compound 4 µM) was 0.706 and the relative viability (SK-LU-1; first compound 0.04 µM) was 1.08. It also gave a relative viability (SK-LU-1; first compound 0.1265 µM) of 0.905, a relative viability (SK-LU-1; first compound 0.4 µM) of 0.902 and a relative viability (SK-LU-1; first compound 4 µM) of 0.605. It also gave a relative viability (SW 1573; first compound 0.04 µM) of 0.904, a relative viability (SW 1573; first compound 0.1265 µM) of 0.918 and a relative viability (SW 1573; first compound 0.4 µM) of 0.744. The relative viability (SW 1573; first compound 4 µM) was 0.746.
